Experiments:
Rhipicephalus sanguineus = Rhipicephalus sanguineus - in vitro contact tests with adult brown dog ticks; format: in vivo; conditions: application rate 5 μg/cm2; after 48 h; ticks dead or moribund
Procedure, shortened: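 Efficacy, scored after 48 h, is the % of adult ticks dead or moribund, i.e. unable to climb away on a 45-50° C hotplate within 5 min. Tubes held 5-10 ticks in the dark at room temperature, on an acetone-applied coating of 5 μg/cm^2 (900 ppm solution).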

Amblyomma hebraeum = assay: Amblyomma hebaraeum test (tick nymphs, immersion); format: in vivo; conditions: application rate 100 ppm; tick nymphs immersed one minute; after 42 days
Method: Solvent: dimethyl sulphoxide
To produce an appropriate active ingredient formulation, 10 mg of active ingredient are mixed with 0.5 ml of dimethyl sulphoxide, and the concentrate is diluted with water to the desired concentration.
Tick nymphs (Amblyomma hebraeum) are placed into perforated plastic beakers and immersed in the desired concentration for one minute. The ticks are transferred on filter paper into a Petri dish and stored in a climate-controlled cabinet.
After 42 days, the kill in % is determined. 100% means that all of the ticks have been killed; 0% means that none of the ticks have been killed.

Musca domestica = Musca domestica test; format: in vivo; conditions: application rate 100 ppm; adult houseflies; after 2 days
Procedure, shortened: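 First, 10 mg compound was taken up in 0.5 ml DMSO and then brought with water to the required concentration. This was applied with sugar solution to a sponge in vessels holding 10 adult flies; kill was assessed after 2 days.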

Ctenocephalides felis [1] = assay: Ctenocephalides felis - oral test; format: in vivo; conditions: application rate 100 ppm in citrated cattle blood; after 2 days
Procedure, shortened: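 Roughly 20 unfed adult C. felis imbibe compound-dosed citrated cattle blood (DMSO formulation) across parafilm from a cylinder above their gauze chamber; percentage mortality recorded at day 2.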

[2] = logP determination by HPLC on a reversed-phase column (C18); format: physicochemical; conditions: for logP^a): HPLC-MS method a); for log P: HPLC-MS
Spodoptera frugiperda = Spodoptera frugiperda - spray test; format: in vivo; conditions: caterpillars on maize leaf discs, after 7 days
Procedure, shortened: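 Percent mortality of Spodoptera frugiperda caterpillars scored 7 days after placing them on dried maize leaf discs sprayed at the desired concentration. Spray formulation: compound dissolved in acetone/dimethylformamide, made up with water containing 1000 ppm emulsifier.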

Phaedon cochleariae = Phaedon cochleariae - spray test; format: in vivo; conditions: larvae on Chinese cabbage leaf discs, after 7 days
Procedure, shortened: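 Mortality of mustard beetle larvae was scored as % at day 7 on Brassica pekinensis leaf discs. Discs had been treated by spraying at the desired concentration, using an acetone/dimethylformamide solution diluted in water with 1000 ppm alkylaryl polyglycol ether, and dried before larvae were added.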

[3] = system: Boophilus microplus Parkhurst strain, SP-resistant; assay: Boophilus microplus - dip test; format: in vivo; conditions: application rate 100 ppm; dip of engorged adult female ticks; after 7 days
Procedure, shortened: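 Compound dissolved in DMSO, diluted with water, and used to fully wet groups of 8-10 engorged female cattle ticks (SP-resistant Parkhurst strain). Fertile egg laying assessed at 7 days, doubtful eggs held ~42 days until hatch; 0% means all eggs fertile.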

Lucilia cuprina = Lucilia cuprina test; format: in vivo; conditions: application rate 100 ppm; L1 larvae; after 2 days
Procedure, shortened: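 Mortality (%) of first-instar blowfly larvae, about 20 per vessel, recorded 2 days after exposure to compound-treated minced horsemeat. Compound dissolved in dimethyl sulphoxide, then water-diluted to the desired concentration.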

Tetranychus urticae = Tetranychus urticae - spray test, OP-resistant; format: in vivo; conditions: bean leaf discs, after 6 days
Procedure, shortened: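 Mortality (%) read on day 6 after spraying Phaseolus vulgaris leaf discs carrying all mite stages with formulations at the desired concentration. Formulation: active ingredient in acetone plus dimethylformamide, made up with emulsifier-containing water (1000 ppm alkylaryl polyglycol ether).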

Ctenocephalides felis [4] = assay: Ctenocephalides felis - in vitro contact tests with adult cat fleas; format: in vivo; conditions: application rate 5 μg/cm2 (=500 g/ha); after 48 h; fleas dead or moribund
Procedure, shortened: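 Efficacy, as percentage of fleas dead or moribund, was scored at 48 h by knocking fleas to the tube base. Exposure was by contact with a dried acetone film of compound at 5 μg/cm^2 area dose; 5–10 adults per tube, room temperature, ambient humidity.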

Boophilus microplus = Boophilus microplus - injection test; format: in vivo; conditions: application rate 20 μg/animal; injection into engorged adult female ticks; after 7 days
Procedure, shortened: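 Five engorged adult female cattle ticks each received a 1 μl abdominal injection of compound solution in dimethyl sulphoxide. Fertile egg laying was assessed at 7 days, with doubtful eggs incubated about 42 days until hatch. 0% efficacy means all eggs fertile.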

[5] = reversed-phase column (C18), Table I-T3

Cc1cc(C(F)(C(F)(F)F)C(F)(F)F)cc(C)c1-n1cc(-c2ccc(Cl)c(C(=O)NC3CC3)c2)cn1 [I-T3-1]
4.4: logP^a) [2] | logP^a) [2, 5]
100%: efficacy (Rhipicephalus sanguineus) | efficacy (kill) (Amblyomma hebraeum) | efficacy (kill) (Musca domestica) | efficacy (kill) (Ctenocephalides felis [1]) | efficacy (Spodoptera frugiperda; application rate 100 g/ha) | efficacy (Phaedon cochleariae; application rate 100 g/ha) | efficacy (laying of fertile eggs) [3] | efficacy (kill) (Lucilia cuprina) | efficacy (Tetranychus urticae; application rate 100 g/ha) | efficacy (Ctenocephalides felis [4]) | efficacy (laying of fertile eggs) (Boophilus microplus)

O=C(NC1CC1)c1cc(-c2cnn(-c3c(F)cc(C(F)(C(F)(F)F)C(F)(F)F)cc3F)c2)ccc1Cl [I-T3-61]
4.0: logP^a) [2] | logP^a) [2, 5]
100%: efficacy (Rhipicephalus sanguineus) | efficacy (kill) (Musca domestica) | efficacy (kill) (Ctenocephalides felis [1]) | efficacy (Spodoptera frugiperda; application rate 100 g/ha) | efficacy (Phaedon cochleariae; application rate 100 g/ha) | efficacy (laying of fertile eggs) [3] | efficacy (kill) (Lucilia cuprina) | efficacy (Tetranychus urticae; application rate 100 g/ha) | efficacy (Ctenocephalides felis [4]) | efficacy (laying of fertile eggs) (Boophilus microplus)
80%: efficacy (kill) (Amblyomma hebraeum)

O=C(NC1CC1)c1cc(-c2cnn(-c3c(Cl)cc(C(F)(C(F)(F)F)C(F)(F)F)cc3C(F)(F)F)c2)ccc1Cl [I-T3-56]
100%: efficacy (Rhipicephalus sanguineus) | efficacy (kill) (Amblyomma hebraeum) | efficacy (kill) (Musca domestica) | efficacy (kill) (Ctenocephalides felis [1]) | efficacy (Spodoptera frugiperda; application rate 100 g/ha) | efficacy (Phaedon cochleariae; application rate 100 g/ha) | efficacy (laying of fertile eggs) [3] | efficacy (kill) (Lucilia cuprina) | efficacy (Tetranychus urticae; application rate 100 g/ha) | efficacy (Ctenocephalides felis [4]) | efficacy (laying of fertile eggs) (Boophilus microplus)
4.4: logP^a) [2] | logP^a) [2, 5]

CCc1cc(C(F)(C(F)(F)F)C(F)(F)F)ccc1-n1cc(-c2cnc(Cl)c(C(=O)NC3CC3)c2)cn1 [I-T3-104]
4.2: logP^a) ([2]; reversed-phase column (C18)) | log P [2, 5]
90%: efficacy (Tetranychus urticae; application rate 500 g/ha)
100%: efficacy (Rhipicephalus sanguineus) | efficacy (kill) (Amblyomma hebraeum) | efficacy (kill) (Musca domestica) | efficacy (kill) (Ctenocephalides felis [1]) | efficacy (Spodoptera frugiperda; application rate 500 g/ha) | efficacy (Phaedon cochleariae; application rate 500 g/ha) | efficacy (laying of fertile eggs) [3] | efficacy (kill) (Lucilia cuprina) | efficacy (laying of fertile eggs) (Boophilus microplus)

O=C(NC1CC1)c1cc(-c2cnn(-c3c(Br)cc(C(F)(C(F)(F)F)C(F)(F)F)cc3C(F)(F)F)c2)ccc1Cl [I-T3-148]
100%: efficacy (Rhipicephalus sanguineus) | efficacy (kill) (Amblyomma hebraeum) | efficacy (kill) (Musca domestica) | efficacy (kill) (Ctenocephalides felis [1]) | efficacy (Spodoptera frugiperda; application rate 100 g/ha) | efficacy (Phaedon cochleariae; application rate 100 g/ha) | efficacy (laying of fertile eggs) [3] | efficacy (kill) (Lucilia cuprina) | efficacy (Ctenocephalides felis [4]) | efficacy (laying of fertile eggs) (Boophilus microplus)
4.5: logP^a) ([2]; reversed-phase column (C18)) | log P [2, 5]
90%: efficacy (Tetranychus urticae; application rate 100 g/ha)

CCc1cc(C(F)(C(F)(F)F)C(F)(F)F)cc(Cl)c1-n1cc(-c2ccc(Cl)c(C(=O)NC3(C#N)CC3)c2)cn1 [I-T3-71]
100%: efficacy (Rhipicephalus sanguineus) | efficacy (kill) (Amblyomma hebraeum) | efficacy (kill) (Musca domestica) | efficacy (kill) (Ctenocephalides felis [1]) | efficacy (Spodoptera frugiperda; application rate 100 g/ha) | efficacy (Phaedon cochleariae; application rate 100 g/ha) | efficacy (laying of fertile eggs) [3] | efficacy (kill) (Lucilia cuprina) | efficacy (Ctenocephalides felis [4]) | efficacy (laying of fertile eggs) (Boophilus microplus)
90%: efficacy (Tetranychus urticae; application rate 100 g/ha)
4.5: logP^a) [2] | logP^a) [2, 5]

Cc1cc(C(F)(C(F)(F)F)C(F)(F)F)cc(C)c1-c1cnn(-c2cnc(Cl)c(C(=O)NC3(C#N)CC3)c2)c1 [I-T4-4]
4.3: logP ([2]; HPLC, C18 reversed phase, acetonitrile/water with formic acid, EEC Directive 79/831 Annex V.A8)
100%: efficacy (Rhipicephalus sanguineus) | efficacy (kill) (Amblyomma hebraeum) | efficacy (kill) (Ctenocephalides felis [1]) | efficacy (Spodoptera frugiperda; application rate 100 g/ha) | efficacy (Phaedon cochleariae; application rate 100 g/ha) | efficacy (laying of fertile eggs) [3] | efficacy (kill) (Lucilia cuprina) | efficacy (Tetranychus urticae; application rate 100 g/ha) | efficacy (Ctenocephalides felis [4]) | efficacy (laying of fertile eggs) (Boophilus microplus)

Cc1cc(C(F)(C(F)(F)F)C(F)(F)F)cc(Cl)c1-n1cc(-c2ccc(Cl)c(C(=O)NC3CC3)c2)cn1 [I-T3-63]
100%: efficacy (Rhipicephalus sanguineus) | efficacy (kill) (Amblyomma hebraeum) | efficacy (kill) (Musca domestica) | efficacy (kill) (Ctenocephalides felis [1]) | efficacy (Spodoptera frugiperda; application rate 100 g/ha) | efficacy (Phaedon cochleariae; application rate 100 g/ha) | efficacy (laying of fertile eggs) [3] | efficacy (kill) (Lucilia cuprina) | efficacy (Tetranychus urticae; application rate 100 g/ha) | efficacy (Ctenocephalides felis [4]) | efficacy (laying of fertile eggs) (Boophilus microplus)
4.4: logP^a) [2] | logP^a) [2, 5]

N#CC1(NC(=O)c2cc(-c3cnn(-c4c(Br)cc(C(F)(C(F)(F)F)C(F)(F)F)cc4C(F)(F)F)c3)ccc2Cl)CC1 [I-T3-155]
4.4: logP^a) ([2]; reversed-phase column (C18)) | log P [2, 5]
100%: efficacy (Rhipicephalus sanguineus) | efficacy (kill) (Amblyomma hebraeum) | efficacy (kill) (Musca domestica) | efficacy (kill) (Ctenocephalides felis [1]) | efficacy (Spodoptera frugiperda; application rate 100 g/ha) | efficacy (Phaedon cochleariae; application rate 100 g/ha) | efficacy (laying of fertile eggs) [3] | efficacy (kill) (Lucilia cuprina) | efficacy (Tetranychus urticae; application rate 100 g/ha) | efficacy (Ctenocephalides felis [4]) | efficacy (laying of fertile eggs) (Boophilus microplus)

Source: patent US10150737B2, “Compounds for controlling arthropods” (priority 2013, dated 2018)
